# From US6509375B1, “Method for increasing productivity in breeder hens” (Cyncron Corporation, priority 1999, dated 2003)
# Experiments:
# Assay type in all cases: in vivo
# [1] = system: progeny chicks of broiler/breeder hens; test: Feeding efficiency of progeny chicks hatched from eggs of L-DOPA treated breeder hens
# Protocol: As used herein, “feeding efficiency” is defined as the ratio of the weight of feed necessary to achieve one weight unit in broiler/breeder hens.
# (§1) Beginning with week 6 of treatment, eggs from treated hens were incubated and hatched. The progeny were then followed for seven to eight weeks to assess weight gain and feeding efficiency. Egg production percentage is in terms of eggs/day/100 hens. The fertility percentage is the number of eggs laid that are fertile. The hatch/fertile ratio is the number of fertile eggs that hatch divided by the number of fertile eggs laid. The chick production percentage is the product of the egg production, fertility, and hatch/fertile percentages.
# The progeny chicks hatched from eggs laid by the control and L-DOPA treated breeder hens were evaluated for feeding efficiency, as described above.
# Progeny Group 1: 8 week feed conversions; Week […] of treatment in broiler breeders
# Progeny Group 2: 8 week feed conversions; Week 7 of treatment in broiler breeders
# Progeny Group 3: 8 week feed conversions; Week 8 of treatment in broiler breeders
# Progeny Group 4: 7 week feed conversions; Week 9 of treatment in broiler breeders
# Progeny Group 5: 6 week feed conversions; Week 10 of treatment in broiler breeders
# broiler/breeder hens = test: Egg laying by broiler breeder hens following handling and transfer stress (Example 2); conditions: for number of eggs laid: ten hens/group, 50 mg/day/kg body weight in food
# Protocol: 58 week old broiler/breeder hens were obtained from a commercial private breeder when they were laying at a rate of approximately 54% (54 eggs/day/100 hens; 38 eggs/week/10 hens). […] L-DOPA was added to the feed of the treatment group of breeder hens at a dosage of 50 mg/day/kg body weight; none was added to the feed of the control group. Egg laying was monitored daily for 9 weeks in the treated and control group.
# [2] = system: Hubbard broiler/breeder hens; test: Egg and chick production by broiler/breeder hens fed L-DOPA-supplemented diet (Example 1); conditions: for Fertility (%): eggs laid that are fertile; for Egg production (%): eggs/day/100 hens, 50 mg/kg body weight in feed; for Hatch/Fertile (%): fertile eggs that hatch / fertile eggs laid; for Chick Production (%): product of egg production, fertility and hatch/fertile percentages
# Protocol: 20 Hubbard broiler/breeder hens and 4 roosters at 57 weeks of age were separated into two groups of 10 hens and two roosters. One group was fed a control (untreated) diet and the second group was fed the same diet supplemented with 50 mg/kg body weight of L-DOPA for 10 weeks. This was followed by a 3-4 week rest period and then treatment was initiated for another 3 weeks (retreatment).
# as §1
structure (smiles),measurement,setting,value
"N[C@@H](Cc1ccc(O)c(O)c1)C(=O)O [L-DOPA, L-Dihydroxyphenylalanine]",Final feeding efficiency of progeny,[1]; Average of progeny groups 1-5,2.05 pounds of feed consumed per pound of body weight gained
same,Final feeding efficiency of progeny,"[1]; Progeny Group 1: 8 week feed conversions, Week 8 of treatment in broiler breeders",1.99 pounds of feed consumed per pound of body weight gained
same,Final feeding efficiency of progeny,"[1]; Progeny Group 2: 8 week feed conversions, Week 7 of treatment in broiler breeders",2.07 pounds of feed consumed per pound of body weight gained
same,Final feeding efficiency of progeny,"[1]; Progeny Group 3: 8 week feed conversions, Week 8 of treatment in broiler breeders",1.98 pounds of feed consumed per pound of body weight gained
same,Final feeding efficiency of progeny,"[1]; Progeny Group 4: 7 week feed conversions, Week 9 of treatment in broiler breeders",2.07 pounds of feed consumed per pound of body weight gained
same,Final feeding efficiency of progeny,"[1]; Progeny Group 5: 6 week feed conversions, Week 10 of treatment in broiler breeders",2.12 pounds of feed consumed per pound of body weight gained
same,average increase in feeding efficiency of progeny relative to control birds,[1]; progeny hatched from eggs during weeks 6-10 of treatment,6%
same,number of eggs laid,broiler/breeder hens; Total of weeks 1-9 after handling and transfer stress,327
same,recovery time to achieve the same egg laying productivity rate as before the stress,broiler/breeder hens; control hens: two months,one month
same,total number of eggs laid greater than that of untreated controls,broiler/breeder hens; nine weeks following the moving stress,31%
same,number of eggs laid,broiler/breeder hens; week 1 after handling and transfer stress,10
same,number of eggs laid,broiler/breeder hens; week 2 after handling and transfer stress,29
same,number of eggs laid,broiler/breeder hens; week 3 after handling and transfer stress,34
same,number of eggs laid,broiler/breeder hens; week 4 after handling and transfer stress,41
same,number of eggs laid,broiler/breeder hens; week 5 after handling and transfer stress,39
same,number of eggs laid,broiler/breeder hens; week 6 after handling and transfer stress,50
same,number of eggs laid,broiler/breeder hens; week 7 after handling and transfer stress,41
same,number of eggs laid,broiler/breeder hens; week 8 after handling and transfer stress,40
same,number of eggs laid,broiler/breeder hens; week 9 after handling and transfer stress,43
same,average percentage egg production versus control hens,"[2]; FIG. 1, over an eight week period",greater
same,cumulative egg production versus control hens,"[2]; FIG. 2, nine week period, L-DOPA-supplemented feed",significantly higher
same,percentage egg production versus control hens during re-treatment,"[2]; FIG. 3, three weeks of re-treatment following three weeks without L-DOPA",increase
same,average weekly egg production versus control hens,"[2]; FIGS. 1 and 2, L-DOPA-supplemented feed 50 mg/kg body weight",significantly higher
same,higher rates of hatching of fertile eggs over eggs from control hens,"[2]; eggs set for incubation during weeks 7, 8 and 10 of treatment",15%
same,Fertility (%),"[2]; mean of weeks 7, 8, 10",92%
same,Egg production (%),"[2]; mean of weeks 7, 8, 10",64%
same,Hatch/Fertile (%),"[2]; mean of weeks 7, 8, 10",84%
same,Chick Production (%),"[2]; mean of weeks 7, 8, 10",51%
same,Fertility (%),[2]; week 7 of treatment,84%
same,Egg production (%),[2]; week 7 of treatment,71%
same,Hatch/Fertile (%),[2]; week 7 of treatment,75%
same,Chick Production (%),[2]; week 7 of treatment,45%
same,Fertility (%),[2]; week 8 of treatment,100%
same,Egg production (%),[2]; week 8 of treatment,58%
same,Hatch/Fertile (%),[2]; week 8 of treatment,90%
same,Chick Production (%),[2]; week 8 of treatment,52%
same,Fertility (%),[2]; week 10 of treatment,92%
same,Egg production (%),[2]; week 10 of treatment,62%
same,Hatch/Fertile (%),[2]; week 10 of treatment,86%
same,Chick Production (%),[2]; week 10 of treatment,55%
same,overall gain in chick production over the control groups,"[2]; weeks 7, 8 and 10 of treatment",76%
